Entries after “also recorded” stand apart in the source; their conditions may differ. Marks after values point to notes of the source that are not given here.
Tests used:
[1] = tested on: cAMP and cGMP concentrations in the lung tissue; experiment: Ovalbumin-induced asthma in guinea pigs: cAMP and cGMP in lung tissue (radioimmunoassay); assay type: in vivo, guinea pig; settings: lung tissue 24 hours after OV challenge
Protocol: The effect combinations of vitamin C, astaxanthin, and ginkolide on asthma-associated disease parameters ovalbumin(OA)-induced asthma in guinea pigs was evaluated. Twenty-four hours following OA challenge, animals are sacrificed and numbers of inflammatory cells (eosinophils, neutrophils, macrophages) are measured in bronchoalveolar lavage (BAL) fluid; and cAMP and cGMP concentrations in the lung tissue. The experiments were carried out as follows. Male Hartley guinea pigs (250-350 g) were sensitized by intramuscular injections of 0.35 ml of a 5% (W/V) ovalbumin (OA)/saline solution into each thigh on days 1 and 4. Guinea pigs were ready for asthmatic challenge after 25 days of ovalbumin injection. Asthmatic challenge was carried out with ovalbumin aerosol, and bronchoalveolar lavage (BAL) was done 24 hours later. The numbers of eosinophils, neutrophils, and macrophages in the BAL fluid were counted. Biopsies from lung tissues, cAMP and cGMP were measured using commercially available radioimmunoassay kits (Amersham). Immediately after sampling, lung biopsies were frozen by means of a Wollenberger clamp prechilled in liquid nitrogen. Samples were powdered with a pestle and mortar in liquid nitrogen and trichloro acetic acid (TCA) was added to the powdered frozen samples ([…] of tissue). Samples were further homogenized in the frozen TCA in the braying mortar and then centrifuged at 14,000×g for 10 min at 4° C. The supernatants were extracted 6 times in water-saturated diethylether, evaporated and assayed for cGMP by radioimmunoassay using liquid scintillation counter (Packard, Tri-Carb 2100TR). The dose-responsive effect of AX, EGb761, and vitamin C administered independently for suppression of asthma-associated parameters in allergen-induced, asthmatic guinea pigs was determined. Ibuprophen (IB) was used as the positive control. Concentration of inflammatory cells in bronchoalveolar lavage (BAL) fluid and levels of cAMP and cGMP in lung tissue were measured in guinea pigs 24 hours following challenge with OV. […] The dose-responsive effect of AX, EGb761, and vitamin C administered in combination for suppression of asthma-associated parameters in allergen-induced, asthmatic guinea pigs was determined. The combination of these three components was given each day for each guinea pig as a “cocktail”. Concentration of inflammatory cells in bronchoalveolar lavage (BAL) fluid and levels of cAMP and cGMP in lung tissue were measured in guinea pigs 24 hours following challenge with OV.

TNF-α = TNF-α expression by PHA-stimulated human PBMC, ELISA of supernatant; assay type: cell-based; settings: PHA 50 μg/ml, 24 hours; 10^−6 M
Protocol: PBMC (2×10^6/ml) from 2 donors were stimulated with 50 μg/ml, PHA; or with astaxanthin (10^−6 M); or with the ginkgolide BN52021 (GB) (10^−4 M); or with a combination of astaxanthin (10^−6 M) plus GB (10^−4 M); or with media. Cells were cultured 24 hours at 37° C., 5% CO2 and analyzed by ELISA for supernatant concentration of TNF-α. Each data point is the mean of triplicate samples.

[2] = tested on: ovalbumin(OA)-induced asthma in guinea pigs; experiment: Ovalbumin-induced asthma in guinea pigs: inflammatory cells in BAL fluid; assay type: in vivo, guinea pig; settings: for Eosinophils / Macrophages / Neutrophils: BAL fluid 24 hours after OV challenge
Protocol: The effect combinations of vitamin C, astaxanthin, and ginkolide on asthma-associated disease parameters ovalbumin(OA)-induced asthma in guinea pigs was evaluated. Twenty-four hours following OA challenge, animals are sacrificed and numbers of inflammatory cells (eosinophils, neutrophils, macrophages) are measured in bronchoalveolar lavage (BAL) fluid; and cAMP and cGMP concentrations in the lung tissue. The experiments were carried out as follows. Male Hartley guinea pigs (250-350 g) were sensitized by intramuscular injections of 0.35 ml of a 5% (W/V) ovalbumin (OA)/saline solution into each thigh on days 1 and 4. Guinea pigs were ready for asthmatic challenge after 25 days of ovalbumin injection. Asthmatic challenge was carried out with ovalbumin aerosol, and bronchoalveolar lavage (BAL) was done 24 hours later. The numbers of eosinophils, neutrophils, and macrophages in the BAL fluid were counted. Twenty-four hours after the aerosol OA challenge, guinea pigs were killed by cervical dislocation and exsanguinated by severing the axillary arteries. Lungs were lavaged with 50 ml of DulBecco's phosphate-buffered saline (aliquots of 10 ml), which were aspirated after gentle chest massage. BAL fluid was centrifuged at 2200 rpm (1100×g) for 10 min, supernatant was aspirated, and pellets were resuspended in 5 ml 0.25% NaCl to lyse residual erythrocytes. This dispersion was centrifuged at 2200 rpm (1100×g) for 10 min, supernatant was aspirated, and pellets were resuspended 5 ml 0.9% NaCl. Total cell counts were done by hemocytometry using trypan blue stain. Slides were prepared on a Shandon Cytospin 2 (Pittsburgh, Pa.) at 300 rpm for 5 min, fixed and stained. Differential cell counts were done using standard morphologic criteria to classify cells as eosinophils, neutrophils, or macrophages, and the results were expressed in cell numbers. The dose-responsive effect of AX, EGb761, and vitamin C administered independently for suppression of asthma-associated parameters in allergen-induced, asthmatic guinea pigs was determined. Ibuprophen (IB) was used as the positive control. Concentration of inflammatory cells in bronchoalveolar lavage (BAL) fluid and levels of cAMP and cGMP in lung tissue were measured in guinea pigs 24 hours following challenge with OV. Data is reported as mean±SD of measurements taken in 6 animals per dosage cohort. *p<0.05 compared to corresponding values of OV antigen-challenged, drug-free control group. The dose-responsive effect of AX, EGb761, and vitamin C administered in combination for suppression of asthma-associated parameters in allergen-induced, asthmatic guinea pigs was determined. The combination of these three components was given each day for each guinea pig as a “cocktail”. Concentration of inflammatory cells in bronchoalveolar lavage (BAL) fluid and levels of cAMP and cGMP in lung tissue were measured in guinea pigs 24 hours following challenge with OV. Data is reported as mean±SD of measurements taken in 6 animals per dosage cohort. *p<0.05 compared to corresponding values of OV antigen-challenged, drug-free control group.

CC1=C(/C=C/C(C)=C/C=C/C(C)=C/C=C/C=C(C)/C=C/C=C(C)/C=C/C2=C(C)C(=O)[C@@H](O)CC2(C)C)C(C)(C)C[C@H](O)C1=O [astaxanthin, 3,3′-dihydroxy-4,4′-diketo-B-carotene]
cAMP ([1]; 5 mg/kg): 6.9 ± 0.5 pmol (mg protein)^−1 | cGMP ([1]; 5 mg/kg): 1.2 ± 0.1 pmol (mg protein)^−1 | cAMP ([1]; 10 mg/kg): 8.1 ± 0.8 pmol (mg protein)^−1 | cGMP ([1]; 10 mg/kg): 1.4 ± 0.1 pmol (mg protein)^−1 | cAMP ([1]; 30 mg/kg): 9.6 ± 0.8 pmol (mg protein)^−1 | cGMP ([1]; 30 mg/kg): 1.8 ± 0.3 pmol (mg protein)^−1 | cAMP ([1]; 100 mg/kg): 12.6 ± 0.8 pmol (mg protein)^−1 | cGMP ([1]; 100 mg/kg): 2.8 ± 0.3 pmol (mg protein)^−1 | cAMP ([1]; 200 mg/kg): 12.1 ± 0.5 pmol (mg protein)^−1 | cGMP ([1]; 200 mg/kg): 2.7 ± 0.2 pmol (mg protein)^−1 | TNF-alpha (TNF-α): 781.34 pg/mL | Eosinophils ([2]; 5 mg/kg): 5.0 ± 0.7 cell × 10^6/animal | Macrophages ([2]; 5 mg/kg): 9.6 ± 1.0 cell × 10^6/animal | Neutrophils ([2]; 5 mg/kg): 5.4 ± 0.8 cell × 10^5/animal | Eosinophils ([2]; 10 mg/kg): 4.6 ± 0.6 cell × 10^6/animal | Macrophages ([2]; 10 mg/kg): 8.0 ± 0.8 cell × 10^6/animal | Neutrophils ([2]; 10 mg/kg): 5.1 ± 0.6 cell × 10^5/animal | Eosinophils ([2]; 30 mg/kg): 3.1 ± 0.5* cell × 10^6/animal | Macrophages ([2]; 30 mg/kg): 3.7 ± 0.7* cell × 10^6/animal | Neutrophils ([2]; 30 mg/kg): 3.3 ± 0.8* cell × 10^5/animal | Eosinophils ([2]; 100 mg/kg): 2.4 ± 0.6* cell × 10^6/animal | Macrophages ([2]; 100 mg/kg): 2.70 ± 0.7* cell × 10^6/animal | Neutrophils ([2]; 100 mg/kg): 2.4 ± 0.5* cell × 10^5/animal | Eosinophils ([2]; 200 mg/kg): 2.3 ± 0.5* cell × 10^6/animal | Macrophages ([2]; 200 mg/kg): 2.6 ± 0.5* cell × 10^6/animal | Neutrophils ([2]; 200 mg/kg): 2.0 ± 0.4* cell × 10^5/animal | protection against OV-induced asthma ([2]; components used separately: 10 mg/kg AX, 200 mg/kg vit C, 10 mg/kg GB, listed as AX): failed to protect; also recorded: failed to reduce the severity of asthma

Reference: patent US20060127505A1, “Anti-inflammatory formulations” (priority 2002, published 2006)
